Results reported in PubChem BioAssay (NCI).
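How tested: cells in 96-well plates exposed to compound for 48 hours at five concentrations. Here, GI50 denotes the concentration required for 50% inhibition of growth. The concentration for full growth arrest is given as TGI.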

Columns and labels:
Experiment in all cases: growth of human tumour cells (NCI), 48 h
U251 CNS = system: U251 CNS
KM12 colon = system: KM12 colon
SNB-75 CNS = system: SNB-75 CNS
COLO 205 colon = system: COLO 205 colon
UACC-62 melanoma = system: UACC-62 melanoma
NCI-H460 lung = system: NCI-H460 lung
RPMI-8226 leukemia = system: RPMI-8226 leukemia
ACHN renal = system: ACHN renal
EKVX NSCLC = system: EKVX NSCLC
IGROV1 ovarian = system: IGROV1 ovarian
MDA-MB-435 = system: MDA-MB-435
M14 melanoma = system: M14 melanoma
SW-620 colon = system: SW-620 colon
HCT-116 colon = system: HCT-116 colon
CCRF-CEM leukemia = system: CCRF-CEM leukemia
MOLT-4 leukemia = system: MOLT-4 leukemia
PC-3 prostate = system: PC-3 prostate
OVCAR-4 ovarian = system: OVCAR-4 ovarian
DU-145 prostate = system: DU-145 prostate
MDA-MB-231 breast = system: MDA-MB-231 breast
SK-MEL-2 melanoma = system: SK-MEL-2 melanoma
OVCAR-5 ovarian = system: OVCAR-5 ovarian
SN12C renal = system: SN12C renal
HL-60(TB) leukemia = system: HL-60(TB) leukemia
NCI-H23 lung = system: NCI-H23 lung
HOP-92 NSCLC = system: HOP-92 NSCLC
OVCAR-3 ovarian = system: OVCAR-3 ovarian
SK-MEL-28 melanoma = system: SK-MEL-28 melanoma

Molecule `COc1ccc(/C(C)=C(\c2ccc(Cl)cc2)c2ccc(OCCN3CCCCC3)cc2)cc1` has a GI50 (U251 CNS) of 4.13 µM, a TGI (U251 CNS) of 8.77 µM and a GI50 (KM12 colon) of 2720 nM. For the same molecule, the TGI (KM12 colon) was 16 µM, the GI50 (SNB-75 CNS) was 4.11 µM and the TGI (SNB-75 CNS) was 10.6 µM. It also gave a GI50 (COLO 205 colon) of 2250 nM, a TGI (COLO 205 colon) of 7.05 µM and a GI50 (UACC-62 melanoma) of 2120 nM. For the same molecule, the TGI (UACC-62 melanoma) was 6.45 µM, the GI50 (NCI-H460 lung) was 4.15 µM and the TGI (NCI-H460 lung) was 9.34 µM. The GI50 (RPMI-8226 leukemia) was 1440 nM, the TGI (RPMI-8226 leukemia) was 6.64 µM and the GI50 (ACHN renal) was 5.13 µM. It also gave a TGI (ACHN renal) of 9.61 µM, a GI50 (EKVX NSCLC) of 2660 nM and a TGI (EKVX NSCLC) of 8.79 µM. The GI50 (IGROV1 ovarian) was 4.93 µM, the TGI (IGROV1 ovarian) was 11.2 µM and the GI50 (MDA-MB-435) was 3.93 µM. It also gave a TGI (MDA-MB-435) of 8.56 µM, a GI50 (M14 melanoma) of 861 nM and a TGI (M14 melanoma) of 2360 nM. For the same molecule, the GI50 (SW-620 colon) was 3.34 µM, the TGI (SW-620 colon) was 8.09 µM and the GI50 (HCT-116 colon) was 1460 nM. The TGI (HCT-116 colon) was 5.24 µM, the GI50 (CCRF-CEM leukemia) was 3.05 µM and the TGI (CCRF-CEM leukemia) was 14.4 µM. For the same molecule, the GI50 (MOLT-4 leukemia) was 4.1 µM, the TGI (MOLT-4 leukemia) was 19.5 µM and the GI50 (PC-3 prostate) was 1810 nM. For the same molecule, the TGI (PC-3 prostate) was 6.59 µM, the GI50 (OVCAR-4 ovarian) was 3.76 µM and the TGI (OVCAR-4 ovarian) was 9.51 µM. It also gave a GI50 (DU-145 prostate) of 8.29 µM, a TGI (DU-145 prostate) of 26.6 µM and a GI50 (MDA-MB-231 breast) of 4.58 µM. The TGI (MDA-MB-231 breast) was 9.22 µM, the GI50 (SK-MEL-2 melanoma) was 5.85 µM and the TGI (SK-MEL-2 melanoma) was 10.7 µM. For the same molecule, the GI50 (OVCAR-5 ovarian) was 4.16 µM, the TGI (OVCAR-5 ovarian) was 9.55 µM and the GI50 (SN12C renal) was 4.68 µM. The TGI (SN12C renal) was 9.53 µM, the GI50 (HL-60(TB) leukemia) was 3.94 µM and the TGI (HL-60(TB) leukemia) was 12.6 µM. It also gave a GI50 (NCI-H23 lung) of 4.34 µM, a TGI (NCI-H23 lung) of 10.2 µM and a GI50 (HOP-92 NSCLC) of 3.45 µM. For the same molecule, the TGI (HOP-92 NSCLC) was 7.55 µM, the GI50 (OVCAR-3 ovarian) was 5.26 µM and the TGI (OVCAR-3 ovarian) was 11 µM. The GI50 (SK-MEL-28 melanoma) was 3.99 µM and the TGI (SK-MEL-28 melanoma) was 8.4 µM.
